Experiments:
[1] = test system: Streptococcus group D X66; assay: standard agar dilution-method test (MIC); assay type: cell-based
Description: (§1) Antibiotic activity of selected compounds of Formual 1 is illustrated by the following in vitro and in vivo test data in Table I, the minimum inhibitory concentration (MIC) for representative compounds against a wide range of gram-positive and gram-negative bacteria is presented. The MIC values were obtained by the standard agar dilution-method test.

[2] = test system: Klebsiella pneumoniae KAE; assay: standard agar dilution-method test (MIC); assay type: cell-based
Description: as §1

[3] = test system: Staphylococcus aureus V41; assay: standard agar dilution-method test (MIC); assay type: cell-based
Description: (§2) The MIC values were obtained by the standard agar dilution-method test.

Escherichia coli N10 = assay: standard agar dilution-method test (MIC); assay type: cell-based
Description: as §2

Escherichia coli TEM = assay: standard agar dilution-method test (MIC); assay type: cell-based
Description: as §2

[4] = test system: Klebsiella pneumoniae X26; assay: standard agar dilution-method test (MIC); assay type: cell-based
Description: as §2

[5] = test system: Klebsiella pneumoniae X65; assay: standard agar dilution-method test (MIC); assay type: cell-based
Description: as §2

[6] = test system: Hemophilus influenzae C.L.; assay: standard agar dilution-method test (MIC); assay type: cell-based
Description: as §2

[7] = test system: Staphylococcus aureus X400; assay: standard agar dilution-method test (MIC); assay type: cell-based
Description: as §2

[8] = test system: Streptococcus pneumoniae Park I; assay: standard agar dilution-method test (MIC); assay type: cell-based
Description: as §2

[9] = test system: Streptococcus pyogenes C203; assay: standard agar dilution-method test (MIC); assay type: cell-based
Description: as §2

[10] = test system: Staphylococcus aureus X1.1; assay: standard agar dilution-method test (MIC); assay type: cell-based
Description: as §2

[11] = test system: Streptococcus group D 2041; assay: standard agar dilution-method test (MIC); assay type: cell-based
Description: as §2

Escherichia coli EC14 = assay: standard agar dilution-method test (MIC); assay type: cell-based
Description: as §2

[12] = test system: Staphylococcus epidermidis EPI2; assay: standard agar dilution-method test (MIC); assay type: cell-based
Description: as §2

Hemophilus influenzae 76 = assay: standard agar dilution-method test (MIC); assay type: cell-based
Description: as §2

[13] = test system: Staphylococcus epidermidis EPI1; assay: standard agar dilution-method test (MIC); assay type: cell-based
Description: as §2

[14] = test system: Staphylococcus aureus S13E; assay: standard agar dilution-method test (MIC); assay type: cell-based
Description: as §2

[15] = mouse, in vivo
in vivo [16] = conditions: mouse, po, 20 mg/kg
[17] = rat, in vivo
in vivo [18] = conditions: rat, po, 20 mg/kg

## Para-nitrobenzyl 7-(R)-phenoxyacetamido-3-(prop-1'-yn-3'-yloxy)-3-cephem-4-carboxylate [Example 1]
[1]
  Minimum Inhibitory Concentration: 128 µg/mL
[2]
  Minimum Inhibitory Concentration: 128 µg/mL
[3]
  Minimum Inhibitory Concentration: 32 µg/mL
Escherichia coli N10
  Minimum Inhibitory Concentration: 4 µg/mL
Escherichia coli TEM
  Minimum Inhibitory Concentration: 8 µg/mL
[4]
  Minimum Inhibitory Concentration: 2 µg/mL
[5]
  Minimum Inhibitory Concentration: 4 µg/mL
[6]
  Minimum Inhibitory Concentration: 4 µg/mL
[7]
  Minimum Inhibitory Concentration: 64 µg/mL
[8]
  Minimum Inhibitory Concentration: 1 µg/mL
[9]
  Minimum Inhibitory Concentration: 0.25 µg/mL
[10]
  Minimum Inhibitory Concentration: 2 µg/mL
[11]
  Minimum Inhibitory Concentration: 128 µg/mL
Escherichia coli EC14
  Minimum Inhibitory Concentration: 2 µg/mL
[12]
  Minimum Inhibitory Concentration: 2 µg/mL
Hemophilus influenzae 76
  Minimum Inhibitory Concentration: 4 µg/mL
[13]
  Minimum Inhibitory Concentration: 8 µg/mL
[14]
  Minimum Inhibitory Concentration: 32 µg/mL

## Benzhydryl 7-(R)-[(2'R)-2'-(N-(t-butylcarbamato))-2'-(para-hydroxyphenyl)acetamido]-3-(prop-1'-yn-3'-yloxy)-3-cephem-4-carboxylate [Example 4]
[1]
  Minimum Inhibitory Concentration: 64 µg/mL
[2]
  Minimum Inhibitory Concentration: 64 µg/mL
[3]
  Minimum Inhibitory Concentration: 8 µg/mL
Escherichia coli N10
  Minimum Inhibitory Concentration: 4 µg/mL
Escherichia coli TEM
  Minimum Inhibitory Concentration: 8 µg/mL
[4]
  Minimum Inhibitory Concentration: 2 µg/mL
[5]
  Minimum Inhibitory Concentration: 2 µg/mL
[6]
  Minimum Inhibitory Concentration: 8 µg/mL
[7]
  Minimum Inhibitory Concentration: 64 µg/mL
[8]
  Minimum Inhibitory Concentration: 0.5 µg/mL
[9]
  Minimum Inhibitory Concentration: 0.06 µg/mL
[11]
  Minimum Inhibitory Concentration: 32 µg/mL
Escherichia coli EC14
  Minimum Inhibitory Concentration: 2 µg/mL
[12]
  Minimum Inhibitory Concentration: 1 µg/mL
Hemophilus influenzae 76
  Minimum Inhibitory Concentration: 8 µg/mL
[13]
  Minimum Inhibitory Concentration: 8 µg/mL
[14]
  Minimum Inhibitory Concentration: 16 µg/mL

## Para-nitrobenzyl 7-(R)-phenoxyacetamido-3-(but-2'-yn-4'-yloxy)-3-cephem-4-carboxylate [Example 6]
[1]
  Minimum Inhibitory Concentration: 128 µg/mL
[2]
  Minimum Inhibitory Concentration: 128 µg/mL
[3]
  Minimum Inhibitory Concentration: 64 µg/mL
Escherichia coli N10
  Minimum Inhibitory Concentration: 8 µg/mL
Escherichia coli TEM
  Minimum Inhibitory Concentration: 16 µg/mL
[4]
  Minimum Inhibitory Concentration: 4 µg/mL
[5]
  Minimum Inhibitory Concentration: 4 µg/mL
[6]
  Minimum Inhibitory Concentration: 8 µg/mL
[7]
  Minimum Inhibitory Concentration: 64 µg/mL
[8]
  Minimum Inhibitory Concentration: 0.25 µg/mL
[9]
  Minimum Inhibitory Concentration: 0.06 µg/mL
[10]
  Minimum Inhibitory Concentration: 0.5 µg/mL
[11]
  Minimum Inhibitory Concentration: 32 µg/mL
Escherichia coli EC14
  Minimum Inhibitory Concentration: 4 µg/mL
[12]
  Minimum Inhibitory Concentration: 1 µg/mL
Hemophilus influenzae 76
  Minimum Inhibitory Concentration: 4 µg/mL
[13]
  Minimum Inhibitory Concentration: 16 µg/mL
[14]
  Minimum Inhibitory Concentration: 64 µg/mL

## C#CCOC1=C(C(=O)O)N2C(=O)[C@@H](NC(=O)[C@H](N)c3ccccc3)[C@H]2SC1 [Test Compound 1, 7-(R)-[2'-(R)-2'-amino-2'-phenylacetamido]-3-(prop-1'-yn-3'-yloxy)-3-cephem-4-carboxylic acid zwitterion]
[15]
  oral absorption characteristics in mice: excellent oral absorption characteristics
In vivo [16]
  concentration at 20 min: 23100 ng/mL
  concentration at 40 min: 12400 ng/mL
  concentration at 1 h: 4000 ng/mL
  concentration at 2 h: 850 ng/mL
[17]
  plasma levels in rats: high plasma levels
In vivo [18]
  concentration at 20 min: 3900 ng/mL
  concentration at 1 h: 15900 ng/mL
  concentration at 2 h: 19300 ng/mL
  concentration at 4 h: 14700 ng/mL
  concentration at 6 h: 12300 ng/mL
  concentration at 9 h: 8500 ng/mL

## benzhydryl 7-(R)-[(2'R)-2'-(N-(t-butylcarbamato))-2'-phenylacetamido]-3-(prop-1'-yn-3'-yloxy)-3-cephem-4-carboxylate [Example 2]
[1]
  Minimum Inhibitory Concentration: 128 µg/mL
[2]
  Minimum Inhibitory Concentration: 128 µg/mL
[3]
  Minimum Inhibitory Concentration: 128 µg/mL
Escherichia coli N10
  Minimum Inhibitory Concentration: 16 µg/mL
Escherichia coli TEM
  Minimum Inhibitory Concentration: 16 µg/mL
[4]
  Minimum Inhibitory Concentration: 2 µg/mL
[5]
  Minimum Inhibitory Concentration: 4 µg/mL
[6]
  Minimum Inhibitory Concentration: 4 µg/mL
[7]
  Minimum Inhibitory Concentration: 128 µg/mL
[8]
  Minimum Inhibitory Concentration: 0.25 µg/mL
[9]
  Minimum Inhibitory Concentration: 0.06 µg/mL
[10]
  Minimum Inhibitory Concentration: 2 µg/mL
[11]
  Minimum Inhibitory Concentration: 64 µg/mL
Escherichia coli EC14
  Minimum Inhibitory Concentration: 4 µg/mL
[12]
  Minimum Inhibitory Concentration: 2 µg/mL
Hemophilus influenzae 76
  Minimum Inhibitory Concentration: 8 µg/mL
[13]
  Minimum Inhibitory Concentration: 32 µg/mL
[14]
  Minimum Inhibitory Concentration: 128 µg/mL

## Para-nitrobenzyl 7-(R)-[(2'R)-2'-(N-(t-butylcarbamato))-2' -phenylacetamido]-3-(prop-1'-yn-3'-yloxy)-3-cephem-4-carboxylate [Example 3]
[1]
  Minimum Inhibitory Concentration: 128 µg/mL
[2]
  Minimum Inhibitory Concentration: 128 µg/mL
[3]
  Minimum Inhibitory Concentration: 128 µg/mL
Escherichia coli N10
  Minimum Inhibitory Concentration: 128 µg/mL
Escherichia coli TEM
  Minimum Inhibitory Concentration: 128 µg/mL
[4]
  Minimum Inhibitory Concentration: 64 µg/mL
[5]
  Minimum Inhibitory Concentration: 128 µg/mL
[6]
  Minimum Inhibitory Concentration: 128 µg/mL
[7]
  Minimum Inhibitory Concentration: 128 µg/mL
[8]
  Minimum Inhibitory Concentration: 1 µg/mL
[9]
  Minimum Inhibitory Concentration: 0.5 µg/mL
[10]
  Minimum Inhibitory Concentration: 8 µg/mL
[11]
  Minimum Inhibitory Concentration: 128 µg/mL
Escherichia coli EC14
  Minimum Inhibitory Concentration: 64 µg/mL
[12]
  Minimum Inhibitory Concentration: 8 µg/mL
Hemophilus influenzae 76
  Minimum Inhibitory Concentration: 128 µg/mL
[13]
  Minimum Inhibitory Concentration: 128 µg/mL
[14]
  Minimum Inhibitory Concentration: 128 µg/mL

— patent US4604386A, “3-(alkynylalkyloxy) cephalosporins” (Eli Lilly and Company, priority 1984, dated 1986)
